In general, EC50 refers to the concentration that produces a half-maximal response. High values mean lower potency in that assay, low ones higher potency in that assay.

The values that follow come from paper PMC5896744 (The Biochemical journal, 2017).

What all share (test): SPR solution competition
Common to all, as to format: binding

In test [1] the target is PKA hRIα CNB-A (115–274) (Homo sapiens, UniProt P10644, A212T/T192R).
Test [2] addresses PKA hRIα CNB-A (115–274) (Homo sapiens, UniProt P10644, A212T).
Test [3] deals with PKA hRIα CNB-B (234–381) (Homo sapiens, UniProt P10644, G316R).
The target of test [4] is PKA hRIα CNB-B (234–381) (Homo sapiens, UniProt P10644, A336T/G316R/V315L).
Test [5] has as its target PKA hRIα CNB-B (234–381) (Homo sapiens, UniProt P10644, G316R/V315L).
Test [6] has as its target PKA hRIα CNB-B (234–381) (Homo sapiens, UniProt P10644, A336T/G316R).
The target of test [7] is PKA hRIα CNB-B (234–381) (Homo sapiens, UniProt P10644, V315L).
Test [8] addresses PKA hRIα CNB-A (115–274) (Homo sapiens, UniProt P10644, T192R).
The target in test [9] is PKA hRIα CNB-B (234–381) (Homo sapiens, UniProt P10644, A336T).
The target in test [10] is PKA hRIα CNB-A (115–274) (Homo sapiens, UniProt P10644).
Test [11] has as its target PKA hRIα CNB-B (234–381) (Homo sapiens, UniProt P10644).

As for `Nc1nc2c(ncn2[C@@H]2O[C@@H]3COP(=O)(O)O[C@H]3[C@H]2O)c(=O)[nH]1` [cGMP], the EC50 in [1] stood at 24 ± 5 nM; in [2], 83 ± 33 nM; in test [3] it was 98 ± 41 nM; in test [4], 0.6 ± 0.3 nM; in test [5], 66 ± 2 nM; in test [6], 0.4 ± 0.1 nM. The EC50 in test [7] turned out to be 678 ± 100 nM; in [8], 1530 ± 53 nM; in test [9], 2 ± 0.1 nM.
With `O=c1[nH]cnc2c1ncn2[C@@H]1O[C@@H]2COP(=O)(O)O[C@H]2[C@H]1O` [cIMP], the EC50 in test [10] was 273 ± 16 nM; in [3] it was 25 ± 9 nM; in test [11], 114 ± 51 nM; in test [8] it was 156 ± 5 nM.
